In series [1] the test system is CAMP gene. Put plainly: Fold induction assay in the MN8CampLuc reporter cell line (luciferase coupled to CAMP gene). In kind it is cell-based, human. As to conditions: for Fold induction (as luciferase activity): cells pre-differentiated by treatment with galactose, FIG. 4 and FIG. 5. The protocol:
MN8CampLuc cells were handled according to Nylen et. al. with the following exception when predifferention of cells were performed before induction: […]

In series [2] the test system is CAMP gene. Nature of the series: RT-PCR of CAMP gene expression in parental HT-29 cell line. In kind it is cell-based, human. As for the experimental part: RT-PCR experiments were performed according to Nylen et. al. (Nylén F, Miraglia E, Cederlund A, Ottosson H, Stromberg R, Gudmundsson G H, Agerberth B. 2013. Boosting innate immunity: Development and validation of a cell-based screening assay to identify LL-37 inducers. Innate Immun.).

In series [3] the test system is autophagy-related genes Beclin-1 and AtgS. Put plainly: RT-PCR of autophagy marker genes in HEK-293 cells. The following applies: for Expression of autophagy-related genes Beclin-1 and AtgS: 24 hrs, PBA 2 mM, compound 5 10 μM, Rapamycin 100 nM, FIG. 9 upper panel. In kind it is cell-based. As for the experimental part: (§1) RT-PCR experiments for expression of marker genes for autophagy in HEK-293 cells were measured by real-time PCR. Data were normalized by the expression of the 18s rRNA housekeeping gene. For the immunofluorescence spectroscopy experiments HEK-293 cells were fixed after treatment with the inducers or control. The cells were then stained with DAPI to visualize the nuclei (blue), and immunolabeled with the anti-LC3, followed by the addition of Alexa-fluor 488 (green). Scale bar=10 μm.

The test system of a further series is LC3. Put plainly: Immunofluorescence of LC3 in HEK-293 cells. In kind it is cell-based. The following applies: 10 μM, 24 hrs, FIG. 9 lower panel. As for the experimental part:
as §1

A further series deals with histone deacetylases. As to conditions: average of assays reported in PubChem, FIG. 4 right panel; cited from earlier work.
[4] abbreviates: MN8CampLuc reporter cell line, FIG. 6.
Setting [5] is: MN8CampLuc reporter cell line, FIG. 2.

Data on 15 molecules can be found in US9957226B2, “Antimicrobial compounds” (AKTHELIA PHARMACEUTICALS, priority 2013, dated 2018).

Entries after “also recorded” stand apart in the source; their conditions may differ. Like-named read-outs stand apart in the source and are kept apart here.

For `Nc1ccccc1NC(=O)c1ccccc1` [Compound 1, N-(2-Aminophenyl)benzamide], the “Concentration required for induction” value with CAMP gene [1] (MN8CampLuc, FIG. 2) was “slightly higher concentration”.

Consider `COc1ccc(C(=O)Nc2ccccc2N)cc1` [Compound 2, N-(2-Aminophenyl)-4-methoxybenzamide], for which the “Concentration required for induction” value in the series with CAMP gene [1] (MN8CampLuc, FIG. 2) is on record as “slightly higher concentration”.

As to `Nc1ccccc1NC(=O)c1ccc(CNC(=O)OCc2ccccc2)cc1` [Compound 4, Benzyl (4-((2-aminophenyl)carbamoyl)-benzyl)carbamate], in the series with CAMP gene [1] (MN8CampLuc, FIG. 2), the “Concentration required for induction” value was “slightly higher concentration”.

With `Nc1ccccc1NC(=O)c1ccc(CNC(=O)OCc2cccnc2)cc1` [Compound 5, Pyridin-3-ylmethyl (4-((2-aminophenyl)-carbamoyl)benzyl)carbamate], in the series on CAMP gene [1] (setting [4]), the “Induction in combination with VitD” value is “synergistic effect; also recorded: Synergism with Vitamin D” and the “Induction on co-incubation with PBA (13)” value was “reduces entinostat-elicited induction”. The “Inducing concentration lower than that of PBA” value with CAMP gene [1] (MN8CampLuc, 0.625-5 μM vs PBA 2-4 mM) was “about 3 orders of magnitude”. The “Concentration required for induction” value in the series with CAMP gene [1] (MN8CampLuc, FIG. 2) was “lowest concentration; also recorded: effective already at μM concentrations”. Moreover, in the series on CAMP gene [1] (MN8CampLuc, compound 5 at 0.625-5 μM, FIG. 2), the “Induction compared with PBA (13) at 2-4 mM” value is given as “considerably higher”. Besides, in the series on CAMP gene [2] (HT29 parental cells, FIG. 7), the “Induction of the CAMP gene at mRNA level (RT-PCR)” value is given as “induces the CAMP gene; also recorded: enhanced transcription of the CAMP gene” and the “Induction of the CAMP gene at mRNA level in combination with Vitamin D” value is listed as “synergy with Vitamin D; also recorded: synergism with Vitamin D”. In the series on CAMP gene [2] (HT-29 cells, 4 and 8 h, FIG. 8), the “CAMP gene expression (mRNA), time course” value is listed as “did not induce”. Besides, the “CAMP gene expression (mRNA), time course” value in the series on CAMP gene [2] (HT-29 cells, 24 and 48 h, FIG. 8) is recorded as “induction was prominent”. Also, the “Expression of autophagy-related genes Beclin-1 and AtgS” value in series [3] is listed as “increased expression”. In series [3] (listed as Entinostat), the “Expression of autophagy-related genes Beclin-1 and AtgS” value is “upregulate the expression”. In addition, in series [3] (marker genes and LC-3, FIG. 9), the Autophagy entry is “induce autophagy; also recorded: stimulates autophagy”. The “LC3 expression in its membrane form (LC3-II)” value in the series with LC3 is “upregulate”.

Consider `COC(=O)Cn1cc(C(=O)NCc2ccc(C(=O)Nc3ccccc3N)cc2)nn1` [Compound 6, Methyl 2-(4-((4-((2-aminophenyl)carbamoyl)benzyl)carbamoyl)-1 H-1,2,3-triazol-1-yl)acetate], for which, in the series on CAMP gene [1] (MN8CampLuc, FIG. 2), the “Concentration required for induction” value is reported as “slightly higher concentration”.

As to `CN(C)c1ccc(NC(=O)CCCC(=O)Nc2ccccc2N)cc1` [Compound 9, N^1-(2-aminophenyl)-N^5-(4-(dimethylamino)-phenyl)glutaramide], the “Fold induction of the CAMP gene (LL-37-luciferase)” value (from here on “Fold induction … (LL-37-luciferase)”) in the series on CAMP gene [1] (setting [5]) was “at a cost of inducing ability”.

Turning to `O=C(NCc1ccc(C(=O)O)cc1)OCc1cccnc1` [Compound 11, 4-((((pyridin-3-ylmethoxy)carbonyl)amino)methyl)benzoic acid], the “Fold induction … (LL-37-luciferase)” value in the series with CAMP gene [1] (setting [5]) was “virtually no induction; also recorded: complete inactivity”.

Regarding `O=C(CCCCCCC(=O)Nc1ccccc1)NO` [Compound 12, N1-hydroxy-N8-phenyloctanediamide], in the series with CAMP gene [1] (MN8CampLuc), the “Fold induction (as luciferase activity)” value is recorded as “much less fold induction than compound 5”. The “Fold induction of the CAMP gene” value in the series on CAMP gene [1] (MN8CampLuc, with and without pre-differentiation of cells by galactose, FIG. 3) is “little induction; also recorded: poor inducer”.

As to `O=C(Nc1ccccc1O)c1ccccc1` [Compound 14, N-(2-Hydroxyphenyl) benzamide], the “Fold induction … (LL-37-luciferase)” value with CAMP gene [1] (setting [5]) is “virtually no induction; also recorded: complete or significant loss of the induction ability”.

In the case of `COc1ccccc1NC(=O)c1ccccc1` [Compound 15, N-(2-methoxyphenyl)benzamide], the “Fold induction … (LL-37-luciferase)” value in the series with CAMP gene [1] (setting [5]) is “virtually no induction; also recorded: complete or significant loss of the induction ability”.

Regarding `COc1ccc(CNc2ccccc2N)cc1` [Compound 16, N-(4-Methoxybenzyl)-1,2-benzenediamine], in the series on CAMP gene [1] (MN8CampLuc), the “Fold induction (as luciferase activity)” value is “at a cost of inducing ability”.

Turning to `NCCNC(=O)c1ccccc1` [Compound 17, N-(2-aminoethyl)-benzamide], the “Fold induction (as luciferase activity)” value with CAMP gene [1] (MN8CampLuc) is “abolition of induction; also recorded: complete or significant loss of the induction ability”.

For `COc1ccc(C(=O)NCCN)cc1` [Compound 18, N-(2-aminoethyl)-4-methoxybenzamide], in the series on CAMP gene [1] (MN8CampLuc), the “Fold induction (as luciferase activity)” value is listed as “abolition of induction; also recorded: complete or significant loss of the induction ability”.

Take `CC(/C=C/C(=O)NO)=C\[C@@H](C)C(=O)c1ccc(N(C)C)cc1` [Compound 19, Trichostatin A]: the “Fold induction (as luciferase activity)” value in the series on CAMP gene [1] (MN8CampLuc) is “much less fold induction than compound 5”. In the series with histone deacetylases, the “HDAC inhibition (known IC50 values) compared with compound 5” value was “considerably more powerful HDAC inhibitors”.

For Phenylbutyrate [Compound 13], in the series on CAMP gene [1], the “Fold induction … (LL-37-luciferase)” value was “considerably lower induction”. Further, the “CAMP gene expression (mRNA), course over time” value in the series on CAMP gene [2] (HT-29 cells, FIG. 8) is listed as “gradual increase of the CAMP gene expression”. The “Expression of autophagy-related genes Beclin-1 and AtgS” value in series [3] is “increased expression”.
